Measured values published in US12441679B2, “Acrylamide-substituted indane compounds and therapeutic use thereof” (Sanofi, priority 2020, dated 2025).

These compounds were tested on YAP1-TEAD and TAZ-TEAD activity (TEAD responsive promoter element) (assay: TEAD-Luciferase Reporter Assay (8XGTIIC-Luciferase construct stably integrated in tumor cell lines)). Conditions: Homo sapiens; 8XGTIIC-Luciferase reporter in tumor cell lines, 48 hrs compound treatment, 10 doses 1-10000 nM.
Format: cell-based, human
Description: TEAD-Luciferase Reporter Assay
Luciferase-based gene reporter assays were used, employing the TEAD responsive promoter element that are stably integrated to different human tumor cell lines in order to monitor YAP1-TEAD and TAZ-TEAD activity and to study YAP1/TAZ-TEAD activity modulation by small molecule compounds. Luciferase-based gene reporter assays employing the GAPDH promoter element and stably integrated to different human tumor cell lines are used as counter screen control cell lines.
Tumor cell lines with stable integration of the 8XGTIIC-Luciferase construct (Dupont et al., Nature 2011) or the GAPDH-Luciferase control plasmid, are seeded in culture medium in 96-well plates at a density of 8000 cells/well. Following an overnight incubation in a 37° C., 5% CO2 growth chamber, cells are treated with compounds described above at 10 doses ranging between 1 and 10000 nM for 48 hrs. After compound incubation, cells are lysed with Bright-Glo Luciferase Assay System (Promega E2620) and luciferase activity is measured using a luminescent plate reader.
The inhibitory activity of the compounds with respect to luciferase activity is given by the concentration which inhibits 50% of activity of non-treated cells. IC50s are determined with a nonlinear regression model on XLfit software analysis (IDBS, UK).

Row | Structure (SMILES) | IC50
1 | C=CC(=O)Nc1ccc2c(c1)C(Oc1ccc(Cl)cc1)CC2 (stereo not shown) [Example 77, N-(3-(4-chlorophenoxy)-2,3-dihydro-1H-inden-5-yl)acrylamide] | 56 nM
2 | C=CC(=O)Nc1ccc2c(c1)CCC2Oc1cccc(OC(F)(F)F)c1 (stereo not shown) [Example 46, N-(1-(3-(trifluoromethoxy)phenoxy)-2,3-dihydro-1H-inden-5-yl)acrylamide] | 4560 nM
3 | C=CC(=O)Nc1ccc2c(c1)CCC2Nc1cccc(C)c1 (stereo not shown) [Example 18, N-(1-(m-tolylamino)-2,3-dihydro-1H-inden-5-yl)acrylamide] | 213 nM
4 | C=CC(=O)Nc1ccc2c(c1)CCC2Nc1ccc(C(F)(F)F)cc1 (stereo not shown) [Example 10, N-(1-((4-(trifluoromethyl)phenyl)amino)-2,3-dihydro-1H-inden-5-yl)acrylamide] | 44 nM
5 | C=CC(=O)Nc1ccc2c(c1)C(Nc1cccc(C(F)(F)F)c1)CC2 (stereo not shown) [Example 11, N-(3-((3-(trifluoromethyl)phenyl)amino)-2,3-dihydro-1H-inden-5-yl)acrylamide] | 37 nM
6 | C=CC(=O)Nc1ccc2c(c1)C(Oc1cccc(F)c1)CC2 (stereo not shown) [Example 41, N-(3-(3-fluorophenoxy)-2,3-dihydro-1H-inden-5-yl)acrylamide] | 87 nM
7 | C=CC(=O)Nc1ccc2c(c1)CC[C@@H]2Nc1ccc(C(F)(F)F)cc1 (single isomer, unassigned) [Example 56] | 44 nM
8 | C=CC(=O)Nc1ccc2c(c1)CC[C@H]2Oc1cccc(C(F)(F)F)c1 (single isomer, unassigned) [Example 85] | 42 nM
9 | C=CC(=O)Nc1ccc2c(c1)C(OCCCC(F)(F)F)CC2 (stereo not shown) [Example 33, N-(3-(4,4,4-trifluorobutoxy)-2,3-dihydro-1H-inden-5-yl)acrylamide] | 170 nM

More lines, now with the values ahead:

Row | IC50 | Structure (SMILES)
10 | 70 nM | C=CC(=O)Nc1ccc2c(c1)CCC2N(C)c1cccc(C(F)(F)F)c1 (stereo not shown) [Example 62, N-(1-(methyl(3-(trifluoromethyl)phenyl)amino)-2,3-dihydro-1H-inden-5-yl)acrylamide]
11 | 38 nM | C=CC(=O)Nc1ccc2c(c1)CCC2Nc1ccc(F)c(F)c1 (stereo not shown) [Example 16, N-(1-((3,4-difluorophenyl)amino)-2,3-dihydro-1H-inden-5-yl)acrylamide]
12 | 178 nM | C=CC(=O)Nc1ccc2c(c1)CCC2Nc1cncc(C(F)(F)F)c1 (stereo not shown) [Example 61, N-(1-((5-(trifluoromethyl)pyridin-3-yl)amino)-2,3-dihydro-1H-inden-5-yl)acrylamide]
13 | 105 nM | C=CC(=O)Nc1ccc2c(c1)C[C@H](Nc1cccc(F)c1)C2 (single isomer, unassigned) [Example 49]
14 | 84 nM | C=CC(=O)Nc1ccc2c(c1)C(Nc1ccc(C(F)(F)F)cc1)C(F)C2 (stereo not shown) [Example 90, N-[2-fluoro-3-[4-(trifluoromethyl)anilino]-2,3-dihydro-1H-inden-5-yl]acrylamide]
15 | 20 nM | C=CC(=O)Nc1ccc2c(c1)CC(Nc1cccc(F)c1)C2 (stereo not shown) [Example 31, N-(2-((3-fluorophenyl)amino)-2,3-dihydro-1H-inden-5-yl)acrylamide]
16 | > 10000 nM | C=CC(=O)Nc1ccc2c(c1)CCC2Nc1cccc(C(=O)OC)c1 (stereo not shown) [Example 22, methyl-3-((5-acrylamido-2,3-dihydro-1H-inden-1-yl)amino)benzoate]
17 | 513 nM | C=CC(=O)N(C)c1ccc2c(c1)CC(C)C2Nc1cccc(C(F)(F)F)c1 (stereo not shown) [Example 93, N-methyl-N-(2-methyl-1-((3-(trifluoromethyl)phenyl)amino)-2,3-dihydro-1H-inden-5-yl)acrylamide]
18 | 76 nM | C=CC(=O)Nc1ccc2c(c1)C[C@H](Nc1cccc(C(F)(F)F)c1)C2 (single isomer, unassigned) [Example 50]
19 | 64 nM | C=CC(=O)Nc1ccc2c(c1)CC(Nc1cccc(C(F)(F)F)c1)C2 (stereo not shown) [Example 32, N-(2-((3-(trifluoromethyl)phenyl)amino)-2,3-dihydro-1H-inden-5-yl)acrylamide]
